In patent publication US9856290B2, “Glycopeptide compositions and uses thereof” (SUSSEX RESEARCH LABORATORIES INC., priority 2013, dated 2018):
Marks after values point to notes of the source that are not given here. The star is where a group is joined. Ac7‑β‑Mal = peracetylated β-maltose, CC(=O)OC[C@H]1O[C@@H](*)[C@H](OC(C)=O)[C@@H](OC(C)=O)[C@@H]1O[C@H]1O[C@H](COC(C)=O)[C@@H](OC(C)=O)[C@H](OC(C)=O)[C@H]1OC(C)=O; Palmitoyl = CCCCCCCCCCCCCCCC(=O)*

Tests used:
[1] = test system: MatTek's EpiDermFT 3D human in vitro skin model; test: Histology (hematoxylin & eosin) of 3D human in vitro skin model; format: cell-based; details: 5 μM, 72 hours post treatment
Description: MatTek's EpiDermFT™ 3D human in vitro skin model was produced by MatTek Corporation (Ashland, Mass., USA). The 3D skin model is comprised of normal human epidermal keratinocytes (NHEK) and normal human dermal fibroblasts (NHDF) derived from neonatal-foreskin tissue and adult skin, respectively. […] The tissues were grown at air-liquid interface in Costar Snapwell™ single well tissue culture plate inserts with 0.4 μm pore size, 1.2 cm in diameter and 1.0 cm^2 surface area. For tissue maintenance, serum-free EFT-400-ASY media was used containing Dulbecco's Modified Eagle's Medium (DMEM), epidermal growth factor, insulin, hydrocortisone, 5 μg/mL gentamicin, 0.2 μg/ml amphotericin B and phenol red.
Tissues were rinsed twice with 1% PBS and treated with 5 μM GP003-9, reference (Pal-KTTKS, CPC Scientific, 822197), and control (DMSO, Fisher, BP231-100). At 72 hours post treatment, the tissue was fixed in 10% neutral buffered formalin overnight and transferred to 1% PBS the next day. […]
MatTek's EpiDermFT™, which is a 3D human in vitro skin model (comprised of normal human epidermal ketatinocytes and normal human dermal fibroblasts), was used to further investigate the effects of an exemplary glycosylated peptide (GP003-9 (SEQ ID NO: 6)) on human skin. […] At 72 hours post treatment, supernatants were isolated and analysed for elastin secretion. […]

[2] = test system: human lung fibroblasts; details: human lung fibroblasts in vitro; cited from earlier work
[3] = test system: Human Dermal Fibroblasts (KMST-6); test: ECM ELISA assay: elastin secretion by human dermal fibroblasts; format: cell-based; details: 5 μM
Outline: (§1)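 KMST-6 human dermal fibroblasts treated with 5 μM compound in serum-free medium with sodium ascorbate and β-aminopropionate fumarate for 48 and 72 h. Secreted fibronectin and elastin quantified by ELISA (450 nm, 4-parameter standard curve), normalized to total cellular protein and expressed as % of DMSO control.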

[4] = test system: Human Dermal Fibroblasts (KMST-6); test: ECM ELISA assay: fibronectin secretion by human dermal fibroblasts; format: cell-based; details: 5 μM
Outline: as §1

[5] = test system: Human Dermal Fibroblasts (KMST-6); test: Total Collagen Assay (Sirius Red Collagen Detection Kit); format: cell-based; details: 5 μM
Description: KMST-6 cells (Japan Health Sciences Foundation, JCRB0433) were seeded at 7,000 cells/mL in 60 mm tissue culture treated plates (Falcon, 353002) in complete media. The complete media consisted of the following: MEM/EBSS (Hyclone, SH30024.01), 10% Heat-Inactivated FBS (Gibco, 10082-147), 1% L-Glutamine (Hyclone, SH30031.01), 1% Nucleosides (800 mg/L Adenosine, 850 mg/L Guanidine, 730 mg/L Cytidine, 730 mg/L Uridine and 240 mg/L Thymidine), 1% Penicillin/Streptomycin (HyClone, SV30010), 1% Sodium Pyruvate (HyClone, SH30239.01), 1% Non-Essential Amino Acids (Hyclone, SH30238.01) and 0.04% Gentamicin (Gibco, 15710-064). Cells were grown for 2 days prior to treatments. The cells were washed with 1×PBS (Fisher, SH30256.01) and treated with 5 μM glycopeptides (GP003-9, GP004-3, GP004-4), reference (Pal-KTTKS, CPC Scientific, 822197), and control (DMSO, Fisher, BP231-100) in serum-free media supplemented with 50 µg/mL Sodium Ascorbate (Sigma, A4034) and 80 μg/mL β-Aminopropionate Fumarate (Sigma, A3134). The treated cells were incubated at 37° C. and 5% CO2 for 48 and 72 hours. At each timepoint, media from each treatment was collected and centrifuged at 1500 RPM for 15 minutes at 4° C. The supernatant was collected and stored at −80° C. for extracellular matrix protein quantification. The following kit was used for quantification of total collagen: Sirius Red Collagen Detection Kit (Chondrex Inc., 9062). The cells were harvested and lysed with Lysis Buffer (20 mM Tris-HCl (Sigma, T1503), 137 mM NaCl (Sigma, S9888), 2 mM EDTA (Fisher, BP118), 1% IGEPAL (Sigma, 18896), 10% Glycerol (Sigma, G5516), 100 μM PMSF (Fisher, 36978) and 10 μg/mL Leupeptin (Sigma, L2884)). They were placed on a container of ice on an orbital shaker (VWR, 89032-088) for 30 minutes. The cell lysate was centrifuged at 10,000 g for 5 minutes at 4° C. The supernatant was collected and used for protein quantification (BioRad, 500-0112). […]

[6] = 72 hours, versus Pal-KTTKS reference
[7] = KMST-6, 48 hours, % compared to control set at 100%, normalized to total protein
[8] = KMST-6, 72 hours, % compared to control set at 100%, normalized to total protein

## CCCCCCCCCCCCCCCC(=O)N[C@@H](CCCCN)C(=O)N[C@H](C(=O)N[C@H](C(=O)N[C@@H](CCCCN)C(=O)N[C@@H](CO)C(=O)O)[C@@H](C)O)[C@@H](C)O[C@@H]1O[C@H](COC(C)=O)[C@@H](O[C@H]2O[C@H](COC(C)=O)[C@@H](OC(C)=O)[C@H](OC(C)=O)[C@H]2OC(C)=O)[C@H](OC(C)=O)[C@H]1OC(C)=O [GP003-9, Pal-KT(Ac7-β-Mal)TKS-OH]
[1]
  effect on the histology of the 3D human skin model: no detrimental effect

## Lys-Thr-Thr-Lys-Ser (KTTKS; listed as Homo sapiens) [pentapeptide derived from the carboxyl-terminus of type I procollagen]
[2]
  ECM proteins (synthesis of collagen types I and III and fibronectin): significantly augment the ECM proteins

## Pal-KTT(Ac7-β-Mal)KS-OH (Palmitoyl-KTT(Ac7‑β‑Mal)KS-OH; SMILES CCCCCCCCCCCCCCCC(=O)N[C@@H](CCCCN)C(=O)N[C@H](C(=O)N[C@H](C(=O)N[C@@H](CCCCN)C(=O)N[C@@H](CO)C(=O)O)[C@@H](C)O[C@@H]1O[C@H](COC(C)=O)[C@@H](O[C@H]2O[C@H](COC(C)=O)[C@@H](OC(C)=O)[C@H](OC(C)=O)[C@H]2OC(C)=O)[C@H](OC(C)=O)[C@H]1OC(C)=O)[C@@H](C)O; listed as Homo sapiens) [GP004-3]
[3]; 72 hours
  biological activity in elastin secretion compared to control: greater biological activity
[3]; 72 hours, versus DMSO control
  increased elastin secretion compared to control: 285%
[3]; [6]
  increased secretion of elastin compared to the reference peptide: 252%
[3]; [7]
  Elastin Secretion at 48 hours: 226.1%
[3]; [8]
  Elastin Secretion at 72 hours: 384.7* %
[3]; KMST-6, 72 hours, control 100%
  ELASTIN (ECM Protein Summary Table): 385*^# %
[4]; 72 hours
  biological activity in fibronectin secretion compared to control: greater biological activity
[4]; 72 hours, versus DMSO control
  increased fibronectin secretion compared to control: 68%
[4]; [6]
  increased fibronectin secretion compared to reference: 50%
[4]; [7]
  Fibronectin secretion at 48 hours: 185.0* %
[4]; [8]
  Fibronectin Secretion at 72 hours: 168.3* %
[4]; KMST-6, 72 hours, control 100%
  FIBRONECTIN (ECM Protein Summary Table): 168*^# %
[5]; 72 hours, versus DMSO control
  increased total collagen secretion compared to control: 31%
[5]; [6]
  increased total collagen secretion compared to the reference peptide: 21%
[5]; KMST-6, 72 hours, control 100%
  TOTAL COLLAGEN (ECM Protein Summary Table): 131*^# %
